Measurements as given in patent US7674827B2, “Indanyl- and tetrahydronaphtyl-amino-thiourea compounds for combating animal pests” (BASF SE, priority 2005, dated 2010).

Key:
Format in all cases: in vivo
[1] = test system: Aphis fabae; experiment: Bean aphid (Aphis fabae) mortality test on dipped nasturtium plants; conditions: foliar, 72 h, nasturtium foliage and stem dipped, aphid mortality determined after 3 days, read-out: mortality in comparison with untreated controls
Procedure: (§1) The active compounds were formulated • a. for testing the activity against Aphis gossypii, Myzus persicae, and Aphis fabae, as 50:50 acetone:water solutions amended with 100 ppm Kinetic® (surfactant), • b. for testing the activity against Spodoptera eridania as a 10.000 ppm solution in a mixture of 35% acetone and water, which was diluted with water, if needed.
(§2) After the experiments were completed, in each case the lowest concentration was determined at which the compound still caused an 75 to 100% inhibition or mortality in comparison with untreated controls (limit or minimal concentration).
B.3 Bean Aphid (Aphis fabae)
Nasturtium plants in the 1st leaf-pair stage (variety ‘Mixed Jewel’) are infested with approximately 25 laboratory-reared aphids by placing infested cut plants on top of the test plants. The cut plants are removed after 24 hr. The foliage and stem of the test plants are dipped into gradient solutions of the test compound. Aphid mortality is determined after 3 days.

[2] = test system: Myzus persicae; experiment: Green peach aphid (Myzus persicae) mortality test on dipped pepper plants; conditions: 120 h, pepper plant leaves dipped, aphid mortality determined after 5 days, read-out: mortality in comparison with untreated controls
Procedure: as §1, §2
B.2 Green Peach Aphid (Myzus persicae)
(§3) Pepper plants in the 2nd leaf-pair stage (variety ‘California Wonder’) are infested with approximately 40 laboratory-reared aphids by placing infested leaf sections on top of the test plants. The leaf sections are removed after 24 hr. The leaves of the intact plants are dipped into gradient solutions of the test compound. Aphid mortality on the treated plants, relative to mortality on check plants, is determined after 5 days.

[3] = test system: Aphis gossypii; experiment: Cotton aphid (Aphis gossypii) mortality test on dipped cotton plants; conditions: 120 h, cotton cotyledons dipped, aphid mortality determined after 5 days, read-out: mortality in comparison with untreated controls
Procedure: as §1, §2
B.1 Cotton Aphid (Aphis gossypii)
as §3, with “Cotton” for “Pepper”, “cotyledon” for “2nd leaf-pair”, “‘Delta Pine’)” for “‘California Wonder’)”, “100” for “40”, “cotyledons” for “leaves”

Measured: mortality at 300 ppm

O=C(OCCNC(=S)NC1CCc2ccccc21)c1ccncc1 (racemic) [Example 13, Isonicotinic acid 2-(3-indan-1-yl-thioureido)-ethyl ester]
> 80%: all assays above

COCC(=O)OCCNC(=S)NC1CCc2ccccc21 (racemic) [Example 14, Methoxy-acetic acid 2-(3-indan-1-yl-thioureido)-ethyl ester]
> 80%: all assays above
